Laboratory results: ChEMBL document CHEMBL1139112, “Solid-phase analogue synthesis of caspase-3 inhibitors via palladium-catalyzed amination of 3-bromopyrazinones” (Bioorg Med Chem Lett, 2007)

Tests used:
Caspase-8 = Caspase-8 (Homo sapiens, UniProt Q14790); assay: Inhibition of human recombinant caspase 8
Caspase-3 [1] = target: T1, Caspase-3 (Homo sapiens, UniProt P42574); assay: Inhibition of human recombinant caspase 3
T1 sequence (P42574 whole entry): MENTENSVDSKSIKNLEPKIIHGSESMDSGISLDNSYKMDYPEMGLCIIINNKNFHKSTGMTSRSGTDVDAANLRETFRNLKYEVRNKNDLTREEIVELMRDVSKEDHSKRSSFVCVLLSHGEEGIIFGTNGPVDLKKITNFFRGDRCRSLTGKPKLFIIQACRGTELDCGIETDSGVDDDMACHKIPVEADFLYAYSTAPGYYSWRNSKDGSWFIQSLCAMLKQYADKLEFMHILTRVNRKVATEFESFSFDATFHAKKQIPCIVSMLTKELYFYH

Caspase-1 = target: T2, Caspase-1 (Homo sapiens, UniProt P29466); assay: Inhibition of human recombinant caspase 1
T2 sequence (P29466 whole entry): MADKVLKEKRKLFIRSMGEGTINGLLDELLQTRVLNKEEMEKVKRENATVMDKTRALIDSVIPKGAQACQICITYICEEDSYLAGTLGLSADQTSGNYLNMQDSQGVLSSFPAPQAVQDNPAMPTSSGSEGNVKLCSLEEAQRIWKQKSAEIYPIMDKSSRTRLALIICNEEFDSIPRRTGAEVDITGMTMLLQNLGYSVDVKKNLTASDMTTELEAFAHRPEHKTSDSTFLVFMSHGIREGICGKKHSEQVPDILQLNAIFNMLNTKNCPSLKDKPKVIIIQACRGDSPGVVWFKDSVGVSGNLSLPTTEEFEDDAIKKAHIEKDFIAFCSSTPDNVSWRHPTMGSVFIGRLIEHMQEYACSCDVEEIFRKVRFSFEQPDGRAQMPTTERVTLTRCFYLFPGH

Caspase-7 = target: T3, Caspase-7 (Homo sapiens, UniProt P55210); assay: Inhibition of human recombinant caspase 7
T3 sequence (P55210 whole entry): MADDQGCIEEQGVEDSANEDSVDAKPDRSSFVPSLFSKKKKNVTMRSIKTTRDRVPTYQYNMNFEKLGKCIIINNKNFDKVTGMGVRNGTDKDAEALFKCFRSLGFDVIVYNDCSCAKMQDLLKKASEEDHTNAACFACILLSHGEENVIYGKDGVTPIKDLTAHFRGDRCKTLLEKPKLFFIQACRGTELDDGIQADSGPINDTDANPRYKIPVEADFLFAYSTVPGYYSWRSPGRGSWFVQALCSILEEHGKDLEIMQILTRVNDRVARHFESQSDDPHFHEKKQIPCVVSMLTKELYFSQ

Caspase-3 [2] = target: T1, Caspase-3; assay: Inhibition of human recombinant caspase 3 in NT2 by whole cell assay

Sequence of Caspase-8 (Q14790 217-374 limits assumed): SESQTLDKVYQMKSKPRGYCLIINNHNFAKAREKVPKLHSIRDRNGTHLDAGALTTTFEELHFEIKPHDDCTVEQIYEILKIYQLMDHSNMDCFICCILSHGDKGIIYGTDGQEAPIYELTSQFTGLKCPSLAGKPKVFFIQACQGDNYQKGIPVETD
Sequence of Caspase-8 (Q14790 385-479 limits assumed): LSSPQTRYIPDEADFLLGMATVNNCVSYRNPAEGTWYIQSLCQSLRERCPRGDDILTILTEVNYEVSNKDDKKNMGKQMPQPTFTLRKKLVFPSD

Structure (SMILES)	IC50 (Caspase-8)	IC50 (Caspase-3 [1])	IC50 (Caspase-1)	IC50 (Caspase-7)	IC50 (Caspase-3 [2])
CCC(C(=O)N[C@@H](CC(=O)O)C(=O)CCCc1ccccc1)n1cc(C(C)(C)C)nc(NCCc2cccs2)c1=O (stereo partly specified)	300 nM	50 nM	2310 nM	920 nM	
CCC(C(=O)N[C@@H](CC(=O)O)C(=O)CCCc1ccccc1)n1cc(C(C)(C)C)nc(NCc2cc(OC)cc(OC)c2)c1=O (stereo partly specified)	3050 nM	160 nM	320 nM	800 nM	
CCC(C(=O)N[C@@H](CC(=O)O)C(=O)CCCc1ccccc1)n1cc(C(C)(C)C)nc(NC(CC(C)C)C(=O)O)c1=O (stereo partly specified)	> 10000 nM	100 nM	5490 nM	3490 nM	
CCC(C(=O)N[C@@H](CC(=O)O)C(=O)CCCc1ccccc1)n1cc(C(C)(C)C)nc(Nc2ccc3c(c2)OCCO3)c1=O (stereo partly specified)	1000 nM	28 nM	330 nM	280 nM	
CCC(C(=O)N[C@@H](CC(=O)O)C(=O)CCCc1ccccc1)n1cc(C(C)(C)C)nc(Nc2nnn[nH]2)c1=O (stereo partly specified)	14 nM	5 nM	9 nM	8 nM	19.4 µM
CCCCCCN(C)CC(=O)[C@H](CC(=O)O)NC(=O)C(CC)n1cc(C(C)(C)C)nc(Nc2nnn[nH]2)c1=O (stereo partly specified)	163 nM	6.6 nM	3.4 nM	64.7 nM	6.07 µM
